A word on the EC50: it is the concentration that produces a half-maximal response.

In the test the target is T1, hGPR120 (Homo sapiens, UniProt Q5NUL3).
T1 construct: expressed in transfected cells; host or cells: CHO-K1
T1 sequence (Q5NUL3 1-361): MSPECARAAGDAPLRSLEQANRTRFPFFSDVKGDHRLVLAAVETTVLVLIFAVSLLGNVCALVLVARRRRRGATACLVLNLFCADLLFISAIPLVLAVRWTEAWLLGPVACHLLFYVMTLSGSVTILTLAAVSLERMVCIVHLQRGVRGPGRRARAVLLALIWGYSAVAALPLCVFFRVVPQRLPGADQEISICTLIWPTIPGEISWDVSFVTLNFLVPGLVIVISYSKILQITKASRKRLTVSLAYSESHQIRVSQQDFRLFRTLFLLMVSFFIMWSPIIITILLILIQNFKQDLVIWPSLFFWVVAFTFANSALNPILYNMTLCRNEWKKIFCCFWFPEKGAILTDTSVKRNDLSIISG
Kind of test: Measurement of Activity of GPR120 Agonist (Cell-Based Assay), Calcium 5 dye fluorescence. As to conditions: CHO-K1 cells expressing Ga16 and hGPR120. The procedure, abridged:
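After an 18 h incubation at 37 °C, the transfected CHO-K1 cells (Gα16, hGPR120) received Calcium 5 dye for 1 h; compound dilutions in 0.5% DMSO were then injected and emission at 525 nm recorded, with values given as % of the vehicle response.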

Where only a bound is given, the exact number is not on record here.

On to `CCCOc1cccc(-c2cc(F)c(N(C)CCCC(=O)O)c(F)c2)c1OCCC` [Example 460, 4-[4-(2,3-dipropoxyphenyl)-2,6-difluoro-N-methyl-anilino]butanoic acid], for which the EC50 was in the range of 200 to 2000 nM.
The figure for `COCc1ccc2c(cnn2-c2cc(F)c(OCCCC(=O)O)c(F)c2)c1` [Example 480, 4-[2,6-difluoro-4-[5-(methoxymethyl)indazol-1-yl]phenoxy]butanoic acid] is 2000 to 20000 nM; for `CC(C)Sc1ncccc1-c1cc(F)c(N2CCC(CCC(=O)O)CC2)c(F)c1` [Example 126, 3-[1-[2,6-difluoro-4-(2-isopropylsulfanyl-3-pyridyl)phenyl]-4-piperidyl]propanoic acid] it is less than 200 nM; for `COc1ccc(-c2cc(F)c(OCCCC(=O)O)c(Cl)c2)cc1OCC1CC1` [Example 407, 4-(5-chloro-3′-cyclopropylmethoxy-3-fluoro-4′-methoxy-biphenyl-4-yloxy)-butyric acid] it is less than 200 nM.
Take `O=C(O)C1CC1COc1c(F)cc(-c2cccc(OCC3CC3)n2)cc1F` (stereo not shown) [Example 549, 2-[4-(6-cyclopropylmethoxy-pyridin-2-yl)-2,6-difluoro-phenoxymethyl]-cyclopropanecarboxylic acid]: the EC50 was less than 200 nM.
The result for `O=C(O)CCCOc1c(F)cc(-c2cc(OC3CCC3)cc(Cl)n2)cc1F` [Example 393, 4-[4-[6-chloro-4-(cyclobutoxy)-2-pyridyl]-2,6-difluoro-phenoxy]butanoic acid] reads less than 200 nM.
The result for `C[C@@H](CCCC(=O)O)c1c(F)cc(-c2cccnc2SC2CCC2)cc1F` [Example 229, (S)-5-[4-(2-cyclobutylsulfanyl-pyridin-3-yl)-2,6-difluoro-phenyl]-hexanoic acid] reads less than 200 nM.
The result for `O=C(O)CCC1CC1c1c(F)cc(-c2cccc(OC3CCC3)n2)cc1F` (stereo not shown) [Example 180, 3-{2-[4-(6-cyclobutoxy-pyridin-2-yl)-2,6-difluoro-phenyl]-cyclopropyl}-propanoic acid] reads less than 200 nM; that for `O=C(O)CCCOc1ccc(-c2cccc3c2OC2(CCCC2)O3)cc1` [Example 288, 4-(4-spiro[1,3-benzodioxol-2,1′-cyclopentan]-4-ylphenoxy)butanoic acid], less than 200 nM.
Consider `Cc1ccc(-c2cc(F)c(OCCCC(=O)O)c(F)c2)cc1OCC1CC1` [Example 532, 4-(3′-cyclopropylmethoxy-3,5-difluoro-4′-methyl-biphenyl-4-yloxy)-butyric acid], for which the concentration giving a half-maximal response (EC50) is less than 200 nM.
The figure for `O=C(O)CCCSc1ccc(-c2cccnc2OCC2CC2)cc1F` [Example 239, 4-[4-(2-cyclopropylmethoxy-pyridin-3-yl)-2-fluoro-phenylsulfanyl]-butyric acid] is less than 200 nM; for `O=C(O)CCC1CCc2cc(-c3cccnc3OC3CCC3)ccc2O1` (stereo not shown) [Example 277, 3-[6-(2-cyclobutoxy-pyridin-3-yl)-chroman-2-yl]-propionic acid] it is 200 to 2000 nM.
The result for `O=C(O)CCCN1CCc2cc(-c3cccnc3SC3CCCC3)ccc21` [Example 132, 4-[5-(2-cyclopentylsulfanyl-3-pyridyl)indolin-1-yl]butanoic acid] reads less than 200 nM; that for `CN(CCCC(=O)O)c1c(F)cc(-c2cccc(N3CCCC3)n2)cc1F` [Example 467, 4-[2,6-difluoro-N-methyl-4-(6-pyrrolidin-1-yl-2-pyridyl)anilino]butanoic acid], 200 to 2000 nM.
Regarding `O=C(O)CC1CCN(c2c(F)cc(-c3ncc(F)c(OCC4CC4)n3)cc2F)C1` (stereo not shown) [Example 593, {1-[4-(4-cyclopropylmethoxy-5-fluoro-pyrimidin-2-yl)-2,6-difluoro-phenyl]-pyrrolidin-3-yl}-acetic acid], the EC50 lay within 200 to 2000 nM.
Regarding `CC(C)Sc1cccc(-c2ccc(C(F)(F)CCCC(=O)O)cc2)n1` [Example 192, 5,5-difluoro-5-[4-(6-isopropylsulfanyl-pyridin-2-yl)-phenyl]-pentanoic acid], the EC50 was less than 200 nM.
The figure for `CC(CCCC(=O)O)c1c(F)cc(-c2cc(F)cc(OC3CCC3)c2)cc1F` (stereo not shown) [Example 411, 5-(5′-cyclobutoxy-3,5,3′-trifluoro-biphenyl-4-yl)-hexanoic acid] is less than 200 nM; for `O=C(O)C1CC1COc1c(F)cc(-c2cccc(OCC3CC3)n2)cc1Cl` (stereo not shown) [Example 552, 2-[2-chloro-4-(6-cyclopropylmethoxy-pyridin-2-yl)-6-fluoro-phenoxymethyl]-cyclopropanecarboxylic acid] it is 200 to 2000 nM.
The figure for `O=C(O)CC1CCN(c2c(F)cc(-c3cncc(C4CCC4)n3)cc2F)CC1` [Example 374, 2-[1-[4-(6-cyclobutylpyrazin-2-yl)-2,6-difluoro-phenyl]-4-piperidyl]acetic acid] is less than 200 nM.
The result for `O=C(O)COCC(F)(F)c1ccc(-c2cccnc2SC2CCC2)cc1` [Example 173, {2-[4-(2-cyclobutylsulfanyl-pyridin-3-yl)-phenyl]-2,2-difluoro-ethoxy}-acetic acid] reads 2000 to 20000 nM; that for `CC(C)Oc1cccc(-c2cc(F)c(OCCCC(=O)O)c(Cl)c2)n1` [Example 402, 4-[2-chloro-6-fluoro-4-(6-isopropoxy-pyridin-2-yl)-phenoxy]-butyric acid], less than 200 nM; that for `CC(C)(CCCC(=O)O)c1ccc(-c2cccnc2SC2CCC2)cc1` [Example 165, 5-[4-(2-cyclobutylsulfanyl-pyridin-3-yl)-phenyl]-5-methyl-hexanoic acid], less than 200 nM.
With `CN(CCCC(=O)O)c1c(F)cc(-c2cccc3c2OC(F)(F)O3)cc1F` [Example 203, 4-{[4-(2,2-difluoro-benzo[1,3]dioxol-4-yl)-2,6-difluoro-phenyl]-methyl-amino}-butyric acid], the EC50 is less than 200 nM.
For the molecule `O=C(O)CCCOc1c(F)cc(-n2ncc3ccc(OC4CCC4)cc32)cc1Cl` [Example 483, 4-[2-chloro-4-[6-(cyclobutoxy)indazol-1-yl]-6-fluoro-phenoxy]butanoic acid], the concentration giving a half-maximal response (EC50) is less than 200 nM.
For `Cc1onc(COCC2CC2)c1-c1cc(F)c(OCCCC(=O)O)c(F)c1` [Example 390, 4-[4-[3-(cyclopropylmethoxymethyl)-5-methyl-isoxazol-4-yl]-2,6-difluoro-phenoxy]butanoic acid], the EC50 is greater than 20000 nM.
The figure for `Cc1cc(OC2CCC2)nc(-c2cc(F)c(OCCCC(=O)O)c(F)c2)n1` [Example 425, 4-[4-(4-cyclobutoxy-6-methyl-pyrimidin-2-yl)-2,6-difluoro-phenoxy]-butyric acid] is less than 200 nM.
The figure for `Oc1cc(CSc2c(F)cc(-c3cccnc3OC3CCCC3)cc2F)on1` [Example 83, 5-[[4-[2-(cyclopentoxy)-3-pyridyl]-2,6-difluoro-phenyl]sulfanylmethyl]isoxazol-3-ol] is less than 200 nM; for `O=C(O)CCC1CCc2cc(-c3cccnc3SC3CCCC3)ccc2O1` (stereo not shown) [Example 280, 3-[6-(2-cyclopentylsulfanyl-pyridin-3-yl)-chroman-2-yl]-propionic acid] it is less than 200 nM.
As to `Cc1cccc(-c2cc3c(-c4cc(F)c(N5CCC(CC(=O)O)CC5)c(F)c4)cccc3s2)c1` [Example 616, {1-[2,6-difluoro-4-(2-m-tolyl-benzo[b]thiophen-4-yl)-phenyl]-piperidin-4-yl}-acetic acid], the EC50 was 200 to 2000 nM.
The result for `CC1(C)Oc2cccc(-c3cc(F)c(OCCCC(=O)O)c(F)c3)c2O1` [Example 23, 4-[4-(2,2-dimethyl-benzo[1,3]dioxol-4-yl)-2,6-difluoro-phenoxy]-butyric acid] reads less than 200 nM; that for `O=C(O)CCCOc1c(F)cc(-c2cccc(OCc3ccccc3)c2)cc1F` [Example 17, 4-(3′-benzyloxy-3,5-difluoro-biphenyl-4-yloxy)-butyric acid], 2000 to 20000 nM.
The result for `O=C(O)CC1CCN(c2c(F)cc(-c3cccc(C4CCC4)n3)cc2F)CC1` [Example 373, 2-[1-[4-(6-cyclobutyl-2-pyridyl)-2,6-difluoro-phenyl]-4-piperidyl]acetic acid] reads 200 to 2000 nM; that for `COCCCOc1cccc(-c2cc(F)c(N3CCC(CC(=O)O)C3)c(F)c2)n1` (stereo not shown) [Example 595, (1-{2,6-difluoro-4-[6-(3-methoxy-propoxy)-pyridin-2-yl]-phenyl}-pyrrolidin-3-yl)-acetic acid], 200 to 2000 nM; that for `O=C(O)CC1CCN(c2c(F)cc(-c3cccc(SC4CCC4)n3)cc2F)CC1` [Example 297, 2-[1-[4-(6-cyclobutylsulfanyl-2-pyridyl)-2,6-difluoro-phenyl]-4-piperidyl]acetic acid], 200 to 2000 nM.
Consider `O=C(O)C1CC1COc1c(F)cc(-c2nccc(OCC3CC3)n2)cc1F` (stereo not shown) [Example 545, 2-[4-(4-cyclopropylmethoxy-pyrimidin-2-yl)-2,6-difluoro-phenoxymethyl]-cyclopropanecarboxylic acid], for which the EC50 lay in the range of 200 to 2000 nM.
The figure for `CC(C)COc1cncc(-c2cc(F)c(N3CCC(CC(=O)O)C3)c(F)c2)n1` (stereo not shown) [Example 496, 2-{1-[2,6-difluoro-4-(6-isobutoxy-pyrazin-2-yl)phenyl]pyrrolidin-3-yl}acetic acid] is 200 to 2000 nM; for `COc1ccc(-c2ccc3c(c2)CCC(CCC(=O)O)S3)c2c1OC(C)(C)C2` (stereo not shown) [Example 274, 3-[6-(7-methoxy-2,2-dimethyl-2,3-dihydro-benzofuran-4-yl)-thiochroman-2-yl]-propionic acid] it is 200 to 2000 nM.

(Values after patent US11261186B2, “Biaryl derivative as GPR120 agonist” (LG CHEM, LTD., priority 2014, dated 2022).)
